Test results: PubChem BioAssay (NCI)
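All cell lines were grown in 96-well plates and treated with compound for 48 hours. TGI marks complete inhibition of growth.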

Tests used:
Experiment in all cases: growth of human tumour cells (NCI), 48 h
HOP-62 NSCLC = test system: HOP-62 NSCLC
MCF7 breast = test system: MCF7 breast
HCT-116 colon = test system: HCT-116 colon
COLO 205 colon = test system: COLO 205 colon
OVCAR-5 ovarian = test system: OVCAR-5 ovarian
A498 renal = test system: A498 renal
MDA-MB-231 breast = test system: MDA-MB-231 breast
SNB-75 CNS = test system: SNB-75 CNS
U251 CNS = test system: U251 CNS
SR leukemia = test system: SR leukemia
OVCAR-3 ovarian = test system: OVCAR-3 ovarian
BT-549 breast = test system: BT-549 breast
SK-MEL-2 melanoma = test system: SK-MEL-2 melanoma
UO-31 renal = test system: UO-31 renal
MOLT-4 leukemia = test system: MOLT-4 leukemia
786-0 renal = test system: 786-0 renal
RPMI-8226 leukemia = test system: RPMI-8226 leukemia
NCI/ADR-RES ovarian = test system: NCI/ADR-RES ovarian
UACC-257 melanoma = test system: UACC-257 melanoma
OVCAR-4 ovarian = test system: OVCAR-4 ovarian
CCRF-CEM leukemia = test system: CCRF-CEM leukemia
SF-539 CNS = test system: SF-539 CNS
NCI-H522 lung = test system: NCI-H522 lung
K-562 leukemia = test system: K-562 leukemia
ACHN renal = test system: ACHN renal
HCC-2998 colon = test system: HCC-2998 colon
NCI-H460 lung = test system: NCI-H460 lung
SNB-19 CNS = test system: SNB-19 CNS
NCI-H23 lung = test system: NCI-H23 lung
IGROV1 ovarian = test system: IGROV1 ovarian
KM12 colon = test system: KM12 colon
A549 NSCLC = test system: A549 NSCLC
HOP-92 NSCLC = test system: HOP-92 NSCLC
MDA-MB-435 = test system: MDA-MB-435
SK-MEL-28 melanoma = test system: SK-MEL-28 melanoma
SN12C renal = test system: SN12C renal
SW-620 colon = test system: SW-620 colon
RXF 393 renal = test system: RXF 393 renal
CAKI-1 renal = test system: CAKI-1 renal
SK-MEL-5 melanoma = test system: SK-MEL-5 melanoma
SF-295 CNS = test system: SF-295 CNS
SF-268 CNS = test system: SF-268 CNS
LOX IMVI melanoma = test system: LOX IMVI melanoma
NCI-H226 lung = test system: NCI-H226 lung
EKVX NSCLC = test system: EKVX NSCLC
HT29 colon = test system: HT29 colon
T-47D breast = test system: T-47D breast
UACC-62 melanoma = test system: UACC-62 melanoma
TK-10 renal = test system: TK-10 renal
HS 578T breast = test system: HS 578T breast
DU-145 prostate = test system: DU-145 prostate
SK-OV-3 ovarian = test system: SK-OV-3 ovarian
MALME-3M melanoma = test system: MALME-3M melanoma
HCT-15 colon = test system: HCT-15 colon
MDA-N = test system: MDA-N
PC-3 prostate = test system: PC-3 prostate
M14 melanoma = test system: M14 melanoma
HL-60(TB) leukemia = test system: HL-60(TB) leukemia
OVCAR-8 ovarian = test system: OVCAR-8 ovarian

`COC12COC(=O)C1C(c1ccc3c(c1)OCO3)c1cc3c(cc1O2)OCO3` (centres undefined) was tested, and the TGI (HOP-62 NSCLC) was 97.6 µM, the TGI (MCF7 breast) was > 100 µM and the TGI (HCT-116 colon) was > 100 µM. The TGI (COLO 205 colon) was > 93.8 µM, the TGI (OVCAR-5 ovarian) was > 100 µM and the TGI (A498 renal) was > 91.8 µM. The TGI (MDA-MB-231 breast) was > 100 µM, the TGI (SNB-75 CNS) was 59.2 µM and the TGI (U251 CNS) was > 100 µM. For the same compound, the TGI (SR leukemia) was > 100 µM, the TGI (OVCAR-3 ovarian) was > 100 µM and the TGI (BT-549 breast) was > 100 µM. The TGI (SK-MEL-2 melanoma) was > 83.8 µM, the TGI (UO-31 renal) was > 91.5 µM and the TGI (MOLT-4 leukemia) was > 87.9 µM. For the same compound, the TGI (786-0 renal) was > 96.8 µM, the TGI (RPMI-8226 leukemia) was > 87.9 µM and the TGI (NCI/ADR-RES ovarian) was > 74.1 µM. The TGI (UACC-257 melanoma) was > 96.4 µM, the TGI (OVCAR-4 ovarian) was > 100 µM and the TGI (CCRF-CEM leukemia) was > 84.2 µM. For the same compound, the TGI (SF-539 CNS) was 43.8 µM, the TGI (NCI-H522 lung) was 39.7 µM and the TGI (K-562 leukemia) was 40.2 µM. The TGI (ACHN renal) was > 100 µM, the TGI (HCC-2998 colon) was 53.1 µM and the TGI (NCI-H460 lung) was > 100 µM. The TGI (SNB-19 CNS) was > 100 µM, the TGI (NCI-H23 lung) was > 100 µM and the TGI (IGROV1 ovarian) was > 100 µM. The TGI (KM12 colon) was > 100 µM, the TGI (A549 NSCLC) was > 100 µM and the TGI (HOP-92 NSCLC) was > 100 µM. For the same compound, the TGI (MDA-MB-435) was 9.13 µM, the TGI (SK-MEL-28 melanoma) was > 100 µM and the TGI (SN12C renal) was > 100 µM. The TGI (SW-620 colon) was > 100 µM, the TGI (RXF 393 renal) was 44.8 µM and the TGI (CAKI-1 renal) was > 100 µM. The TGI (SK-MEL-5 melanoma) was > 100 µM, the TGI (SF-295 CNS) was > 100 µM and the TGI (SF-268 CNS) was > 100 µM. For the same compound, the TGI (LOX IMVI melanoma) was > 100 µM, the TGI (NCI-H226 lung) was > 100 µM and the TGI (EKVX NSCLC) was > 97.4 µM. For the same compound, the TGI (HT29 colon) was > 91 µM, the TGI (T-47D breast) was > 100 µM and the TGI (UACC-62 melanoma) was > 100 µM. For the same compound, the TGI (TK-10 renal) was > 100 µM, the TGI (HS 578T breast) was > 77.3 µM and the TGI (DU-145 prostate) was > 93.5 µM. For the same compound, the TGI (SK-OV-3 ovarian) was > 75.8 µM, the TGI (MALME-3M melanoma) was > 100 µM and the TGI (HCT-15 colon) was > 100 µM. The TGI (MDA-N) was 11.7 µM, the TGI (PC-3 prostate) was > 100 µM and the TGI (M14 melanoma) was > 100 µM. The TGI (HL-60(TB) leukemia) was > 52.3 µM and the TGI (OVCAR-8 ovarian) was > 100 µM.
